Results: US20160075682A1, “INHIBITORS OF NICOTINAMIDE PHOSPHORIBOSYLTRANSFERASE, COMPOSITIONS, PRODUCTS AND USES THEREOF” (UNIVERSITÀ DEGLI STUDI DEL PIEMONTE ORIENTALE "AMEDEO …, priority 2013, published 2016)

What was measured:
[1] = tested on: Dextran-induced colitis in C57/BJ6 mice; assay: Experimental colitis induced by dextran sulfate sodium (DSS); type: in vivo; conditions: i.p., doses of between 20 mg/Kg and 500 mg/Kg
Method: Animal work was authorized by the local ethical committee for animal studies (Università del Piemonte Orientale). Colitis was induced in C57/BJ6 mice (Harlan Nossan, Milan, Italy) by addition of DSS (2%) to their daily drinking water for 7 days followed by a 3-day recovery period without DSS. The severity of colitis was assessed using these set of criteria: (1) clinical index (daily changes in body weight; diarrhea and rectal bleeding); (2) macroscopic evidence of colitis (shortening of colon length). On day 10 of the experiment, animals were sacrificed. Treatments were performed with either solvent alone or drugs once a day for the entire duration of the experiments from day 1 to day 7. The colon lengths were measured and colon tissues were harvested for biochemical measurements, histopathological assessment and scoring. (Tang Y, Preuss F, Turek F W, Jakate S, Keshavarzian A. Sleep deprivation worsens inflammation and delays recovery in a mouse model of colitis. Sleep Med. 2009 June; 10(6):597-603).
As previously described, the colon of DNBS- or dextran treated animals was removed after the induction of colitis. Compounds of formula (I) were administered intraperitoneally (i.p.).

NAMPT = target: T1, NAMPT (Homo sapiens, UniProt P43490); assay: Direct inhibition of NAMPT enzymatic activity (Cyclex NAMPT colorimetric Assay Kit); type: biochemical; conditions: as assessed with a cycling assay
T1 construct: endogenous in cells; host or cells: SH-SY5Y and HeLa
T1 sequence (P43490 whole entry): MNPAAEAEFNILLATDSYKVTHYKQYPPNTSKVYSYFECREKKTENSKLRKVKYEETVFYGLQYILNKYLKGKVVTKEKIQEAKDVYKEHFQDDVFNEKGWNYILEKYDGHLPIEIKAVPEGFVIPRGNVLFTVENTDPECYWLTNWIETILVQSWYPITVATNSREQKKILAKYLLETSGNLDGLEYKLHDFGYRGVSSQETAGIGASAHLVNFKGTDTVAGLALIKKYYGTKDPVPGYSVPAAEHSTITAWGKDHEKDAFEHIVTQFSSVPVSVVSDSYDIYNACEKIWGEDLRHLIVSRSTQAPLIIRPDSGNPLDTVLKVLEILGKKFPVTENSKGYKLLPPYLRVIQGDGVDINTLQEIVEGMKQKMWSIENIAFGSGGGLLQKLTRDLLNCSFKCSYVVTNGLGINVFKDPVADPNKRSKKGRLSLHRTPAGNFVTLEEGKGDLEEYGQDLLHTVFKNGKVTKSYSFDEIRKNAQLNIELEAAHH
Method: Determination of the direct activity of compounds on NAMPT was performed using a commercial kit, Cyclex NAMPT colorimetric Assay Kit.

[2] = Microsomal stability with rat liver microsomes; type: in vitro ADME, Male Wistar rat; conditions: 50 μM substrate, 1.0 mg/mL protein, 60 minutes at 37° C., pH 7.4
Method: Male Wistar rat liver microsomes (RLM), (protein concentration: 25 mg/ml determined using the Omura and Sato method, total P450: 0.64 nmol/mg protein) were used throughout this study and prepared using an internal protocol. The cryopreserved pooled human liver microsomes (HLM), (pooled mixed sex, ten individual donors, protein concentration: 20 mg/ml, total P450: 0.36 nmol/mg) were purchased from BD Gentest™ (Woburn, Mass.) and used throughout this study.
The standard incubation mixture (1 ml final volume), was carried out in a 50 mM TRIS (Tris[hydroxymethyl]aminomethane) buffer (pH 7.4) containing 10 μl of acetonitrile (1% of total volume), and 50 μM substrate compounds. After pre-equilibration of the mixture, an appropriate volume of RLM or HLM suspension was added to give a final protein concentration of 1.0 mg/mL. The mixture was shaken for 60 minutes at 37° C. Control incubations were carried out without microsomes. Each incubation was stopped by addition of 1 ml ice-cold acetonitrile, vortexed and centrifuged at 11,000 r.p.m. for 5 min. The supernatants were analysed by LC-DAD-UV and LC-ESI-MS systems to determine the metabolic stability (% substrate residue) and the structure of metabolites respectively (Table 1).
A Shimadzu HPLC system (Shimadzu, Kyoto, Japan), consisting of two LC-10AD Vp module pumps, an SLC-10A Vp system controller, an SIL-10AD Vp autosampler, and a DGU-14-A on-line degasser were used for the analysis. Chromatographic separation was performed on a Phenomenex Luna C18(2) 150×4.6 mm (5 μm) (Phenomenex srl, Castel Bolognese, Italy) as a stationary phase protected by a C18 SecurityGuard (Phenomenex srl, Castel Bolognese, Italy). The SPD-M10Avp photodiode array detector was used to detect the analytes. LC-Solution 1.24 software was used to process the chromatograms. Aliquots (20 μL) of supernatants obtained from incubations were injected onto the HPLC system and eluted with a mobile phase (flow rate 1.0 mL/min) consisting of a A: 0.5% formic acid solution, B: acetonitrile/methanol 8:2. A Thermo Finningan LCQ Deca XP plus system equipped with a quaternary pump, a Surveyor AS autosampler, a Surveyor photodiode array detector and a vacuum degasser was used for LC/MS analyses (Thermo Electron Corporation, Waltham, Mass.). All the chromatographic separations were performed on a Phenomenex Luna C18(2)150×2 mm (4 μm) (kept at a 35° C.) as a stationary phase protected by a C18 SecurityGuard (Phenomenex srl, Castel Bolognese, Italy). Aliquots (2.0 μl) of supernatants obtained from incubations were injected onto the system and eluted with a mobile phase (flow rate 0.2 ml/min) consisting of a A: 0.2% formic acid solution, B: acetonitrile/methanol 8:2. The eluate was injected into the electrospray ion source (ESI) and MS and MS^n spectra were acquired and processed using Xcalibur® software. The operating conditions on the ion trap mass spectrometer were as follows: Positive mode, spray voltage, 5.30 kV; source current, 80 μA; capillary temperature, 350° C.; capillary voltage, 21.00 V; tube lens offset, 15.00 V; multipole 1 offset, −5.75 V; multipole 2 offset, −9.00 V; sheath gas flow (N2), 55 Auxiliary Units.

SH-SY5Y, HeLa = assay: MTT cell proliferation assay and trypan blue count (cell viability); type: cell-based; conditions: cells treated for 48 and 72 hours; read-out: IC50 values (inhibition of cellular proliferation, MTT assay and trypan blue assay)
Outline: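 SH-SY5Y and HeLa cells, 8×10^5 per well, exposed 48 and 72 h with final DMSO ≤0.5%. Viability by MTT (250 μg/ml, 1 h, A570 after isopropanol/HCl) and by trypan blue count. IC50 from dose-response curves for some compounds.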

SMILES | protection from Dextran-induced colitis as assessed by the macroscopic damage score [1] | inhibition of the enzymatic activity of NAMPT (NAMPT) | RLM stability % substrate residue (area peak) [2] [%] | IC50 (SH-SY5Y, HeLa) [nM]
c1ccc(-c2ccccc2OCCCCCCn2cc(-c3cccnc3)nn2)cc1 [3-(1-(6-([1,1′-biphenyl]-2-yloxy)hexyl)-1H-1,2,3-triazol-4-yl)pyridine] | able to protect | able to inhibit | >98 | < 300
O=C(NCCCCCCCn1cc(-c2cccnc2)nn1)c1ccccc1-c1ccccc1 [N-(7-(4-(pyridin-3-yl)-1H-1,2,3-triazol-1-yl)heptyl)-[1,1′-biphenyl]-2-carboxamide] | able to protect | able to inhibit | >99 | < 300
